Results on 41 compounds are retold here after ChEMBL document CHEMBL5365548, “Discovery of Pyrrolo[2,3-c]pyridines as Potent and Reversible LSD1 Inhibitors” (ACS Med Chem Lett, 2023).

The subject of one data set is MV4-11. Kind of data set: Antiproliferative activity against human MV4-11 cells assessed as cell growth inhibition incubated for 10 days by WST-8 assay. Type of data set: functional, cell-based. The conditions noted are these: MV4-11, 240 h.
Data set [1] has as its target Lysine-specific histone demethylase 1A (Homo sapiens, UniProt O60341). In words: Inhibition of human recombinant LSD1 expressed in Escherichia coli using H3K4me2 peptide as substrate incubated for 60 mins by AlphaLISA assay.
The next data set concerns MOLM-13. In words: Antiproliferative activity against human MOLM-13 cells assessed as cell growth inhibition incubated for 7 days by WST-8 assay. Type of data set: functional, cell-based. The conditions noted are these: MOLM-13, 168 h.
The test system of a further data set is NCI-H1417. Kind of data set: Antiproliferative activity against human NCI-H1417 cells assessed as cell growth inhibition incubated for 10 days by WST-8 assay. It counts as functional, cell-based. The note with it: NCI-H1417, 240 h.
A short description of data set [2]: Microsomal stability in mouse liver microsome assessed as half life measured upto 60 mins by LC-MS/MS analysis. It counts as ADME. The conditions noted are these: liver microsomes.
The nature of data set [3]: Microsomal stability in dog liver microsome assessed as half life measured upto 60 mins by LC-MS/MS analysis. Type of data set: ADME, Canis lupus familiaris. The conditions noted are these: liver microsomes.
Data set [4] in a line: Microsomal stability in human liver microsome assessed as half life measured upto 60 mins by LC-MS/MS analysis. The conditions noted are these: liver microsomes. It counts as ADME.
A short description of data set [5]: Microsomal stability in rat liver microsome assessed as half life measured upto 60 mins by LC-MS/MS analysis. It counts as ADME. The conditions noted are these: liver microsomes.

As to `Cc1ccc(-c2ncc(OC[C@@H]3CCNC3)cc2-c2ccc(C#N)cc2)cc1`, the IC50 in the data set with MV4-11 is 122 nM; in data set [1] it was 130 nM; in the data set on MOLM-13 it was 613 nM; in the data set on NCI-H1417, 213 nM.
Turning to `CC(C)c1ccc(-c2ncc3c(ccn3CC3CCNCC3)c2-c2ccc(C#N)cc2)cc1`, in data set [1], the IC50 is 46.1 nM.
Same read-out and setting: with `Cn1ncc2cc(-c3ncc4c(ccn4CC4CCNCC4)c3-c3ccc(C(N)=O)cc3)ccc21` the figure was 6250 nM.
The same measure, in the same setting: the figure for `COC(C)(C)c1ccc(-c2ncc3c(ccn3CC3CCNCC3)c2-c2ccc(C#N)cc2)cc1` is 16.5 nM; for `CN(C)c1ccc(-c2ncc3c(ccn3CC3CCNCC3)c2-c2ccc(C#N)cc2)cc1` it is 9.4 nM.
On the same count and under the same terms, the figure for `CCC1(Cn2ccc3c(-c4ccc(C#N)cc4)c(-c4ccc5c(cnn5C)c4)ncc32)CCNCC1` is 121 nM.
Take `Cc1cc(-c2c(-c3ccc4c(cnn4C)c3)ncc3c2ccn3CC2CCNCC2)ccc1C#N`: the IC50 in data set [1] was determined as 156 nM.
Same read-out and setting: with `Cn1ncc2cc(-c3ncc4c(ccn4CC4CCNCC4)c3-c3ccc(C#N)cc3F)ccc21` the figure was 17.5 nM.
Take `Cn1ccc2cc(-c3ncc4c(ccn4CC4CCNCC4)c3-c3ccc(C#N)cc3)cnc21`: the IC50 in data set [1] is 5.1 nM.
Still for that read-out and setting: with `COC(=O)Nc1ccc(-c2ncc3c(ccn3CC3CCNCC3)c2-c2ccc(C#N)cc2)cc1` the figure was 53.8 nM.
Regarding `CN1CCOc2cc(-c3ncc4c(ccn4CC4CCNCC4)c3-c3ccc(C#N)c(F)c3)ccc21`, the half-life was below 10 min in data set [2], 37 min in data set [3], below 10 min in data set [4] and 42 min in data set [5]. Also, the IC50 with MV4-11 stood at 1.7 nM; in data set [1], 4.3 nM; with MOLM-13, 58 nM; in the data set on NCI-H1417, 2.7 nM.
Take `CC(C)(O)c1ccc(-c2ncc3c(ccn3CC3CCNCC3)c2-c2ccc(C#N)cc2)cc1`: the IC50 in data set [1] is 21.1 nM.
The same measure, in the same setting: the figure for `Cc1ccc(-c2ncc3c(ccn3CC3CCNCC3)c2-c2ccc(C#N)cc2)cc1` is 34.5 nM; for `Cn1ccc2cc(-c3ncc4c(ccn4CC4CCNCC4)c3-c3ccc(C#N)cc3)ccc21` it is 6.5 nM.
Same read-out and setting: the figure for `Cn1cnc2cc(-c3ncc4c(ccn4CC4CCNCC4)c3-c3ccc(C#N)cc3)ccc21` is 15.4 nM.
As for `C=C(C)c1ccc(-c2ncc3c(ccn3CC3CCNCC3)c2-c2ccc(C#N)cc2)cc1`, in data set [1], the IC50 amounted to 58.5 nM.
The same measure, in the same setting: with `Cn1cc(-c2ncc3c(ccn3CC3CCNCC3)c2-c2ccc(C#N)cc2)cn1` the figure was above 1000 nM; with `CS(=O)(=O)c1ccc(-c2ncc3c(ccn3CC3CCNCC3)c2-c2ccc(C#N)cc2)cc1`, 146 nM.
In the case of `Cn1ncc2cc(-c3ncc4c(ccn4CC4CCNCC4)c3-c3ccc(C#N)cc3)ccc21`, the 50% inhibitory concentration (IC50) with MV4-11 was 4.1 nM; in data set [1], 12.9 nM; in the data set with MOLM-13, 62 nM; in the data set on NCI-H1417, 11 nM.
On to `Cn1ncc2cc(-c3ncc4c(ccn4CC4(C)CCNCC4)c3-c3ccc(C#N)cc3)ccc21`, for which the half-maximal inhibitory concentration (IC50) in the data set with MV4-11 was 3.2 nM; in data set [1], 4.3 nM; in the data set with MOLM-13, 126 nM; in the data set on NCI-H1417, 5.7 nM.
On to `CN1CCOc2cc(-c3ncc4c(ccn4CC4(C)CCNCC4)c3-c3ccc(C#N)c(F)c3)ccc21`, for which the half-life in data set [2] was below 10 min; in data set [3], 35 min; in data set [4] it was below 10 min; in data set [5], 36 min. Also, the IC50 was determined as 0.7 nM in the data set with MV4-11, 1.4 nM in data set [1], 182 nM with MOLM-13 and 2.3 nM with NCI-H1417.
Regarding `CN1CCOc2cc(-c3ncc4c(ccn4CC4(C)CCNCC4)c3-c3ccc(C#N)cc3)ccc21`, the IC50 in the data set on MV4-11 stood at 1.5 nM; in data set [1], 1.3 nM; in the data set with MOLM-13, 130 nM; in the data set on NCI-H1417 it was 3.7 nM.
For `CNCCCn1ccc2c(-c3ccc(C#N)cc3)c(-c3ccc4c(cnn4C)c3)ncc21`, the IC50 in data set [1] amounted to 42.8 nM.
As for `N#Cc1ccc(-c2c(-c3ccc4[nH]ncc4c3)ncc3c2ccn3CC2CCNCC2)cc1`, the IC50 in data set [1] stood at 94.3 nM.
Regarding `N#Cc1ccc(-c2c(-c3ccc(N)cc3)ncc3c2ccn3CC2CCNCC2)cc1`, in data set [1], the IC50 turned out to be 354 nM.
Still for that read-out and setting: with `Cn1ncc2cc(-c3ncc4c(ccn4C[C@@H]4CCCNC4)c3-c3ccc(C#N)c(F)c3)ccc21` the figure was 3.5 nM.
Same read-out and setting: the figure for `Cc1ccc(-c2ncc3c(ccn3CC3CCNCC3)c2-c2ccc(C#N)cc2)cc1C` is 24.3 nM; for `CNC1CCC(Cn2ccc3c(-c4ccc(C#N)c(F)c4)c(-c4ccc5c(cnn5C)c4)ncc32)CC1` (stereo not drawn) it is 229 nM.
Same read-out and setting: the figure for `Cn1ncc2cc(-c3ncc4c(ccn4Cc4cccnc4)c3-c3ccc(C#N)c(F)c3)ccc21` is above 10000 nM.
On to `CN1CCOc2cc(-c3ncc4c(ccn4CC4CCNCC4)c3-c3ccc(C#N)cc3)ccc21`, for which the half-inhibitory concentration (IC50) in the data set with MV4-11 is 2.9 nM; in data set [1] it was 4.6 nM; in the data set with MOLM-13, 170 nM; with NCI-H1417 it was 9.3 nM.
On to `Cn1ncc2cc(-c3ncc4c(ccn4CCCCN)c3-c3ccc(C#N)cc3)ccc21`, for which the IC50 in data set [1] came out at 12.4 nM.
On the same count and under the same terms, the figure for `Cc1ccc(-c2ncc3c(ccn3CC3CCNCC3)c2-c2ccc(C#N)cc2)cn1` is 69.8 nM; for `CC(C)(C)c1ccc(-c2ncc3c(ccn3CC3CCNCC3)c2-c2ccc(C#N)cc2)cc1` it is 47.9 nM.
Take `Cn1ncc2cc(-c3ncc4c(ccn4C[C@@H]4CCNC4)c3-c3ccc(C#N)c(F)c3)ccc21`: the half-life in data set [2], in data set [3], in data set [4] and in data set [5] was above 60 min each time. The IC50 in data set [1] worked out at 3.7 nM.
In the case of `Cn1ncc2cc(-c3ncc4[nH]ccc4c3-c3ccc(C#N)cc3)ccc21`, in data set [1], the half-inhibitory concentration (IC50) came out at 3710 nM.
Regarding `Cn1ncc2cc(-c3ncc4c(ccn4CC4(C)CCNCC4)c3-c3ccc(C#N)c(F)c3)ccc21`, the half-life in data set [2], in data set [3], in data set [4] and in data set [5] was above 60 min in each case. Further, the half-inhibitory concentration (IC50) with MV4-11 worked out at 0.6 nM; in data set [1], 3.1 nM; with MOLM-13 it was 31 nM; in the data set with NCI-H1417, 1.1 nM.
With `Cn1ncc2cc(-c3ncc4c(ccn4CC4CCNCC4)c3-c3ccc(C#N)c(F)c3)ccc21`, the half-life in data set [2], in data set [3], in data set [4] and in data set [5] was above 60 min in each case. Further, the IC50 with MV4-11 was 2.7 nM; in data set [1] it was 3.9 nM; in the data set with MOLM-13 it was 316 nM; in the data set with NCI-H1417, 7.3 nM.
In the case of `Cc1cc(C#N)ccc1-c1c(-c2ccc3c(cnn3C)c2)ncc2c1ccn2CC1CCNCC1`, in data set [1], the IC50 came to 215 nM.
The same measure, in the same setting: with `Cc1ccc(-c2ncc3c(ccn3C[C@@H]3CCNC3)c2-c2ccc(C#N)cc2)cc1` the figure was 80 nM; with `Cn1ncc2cc(-c3ncc4c(ccn4Cc4c[nH]cn4)c3-c3ccc(C#N)c(F)c3)ccc21`, above 10000 nM; with `C/C(=N\NC(=O)c1cccc(S(=O)(=O)N2CCN(C)CC2)c1)c1cc(Cl)ccc1O` [SECLIDEMSTAT], 26.2 nM.
